Assay results from patent US20240067657A1, “AMIDO-SUBSTITUTED PYRIDYL COMPOUNDS AND METHODS OF USE THEREOF FOR THE TREATMENT OF HERPESVIRUSES” (Merck Sharp & Dohme LLC, priority 2020, published 2024).
Where two headings read alike, the source gives them in different places.

Tests used:
[1] = test system: HSV-1 Strain F in Vero or MRC5 cells; assay: Viral qPCR assay HSV-1 (V0/V1, V2/V3), EC50; format: cell-based; conditions: 10%
Outline: (§1)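 Infected cells added to compounds (10-point 3-fold series), ~72 h at 37 °C, then lysed; viral genomes by TaqMan qPCR against plasmid standard, normalized to PPIA in V0/V1 only, EC50 from 4-parameter fit. HCMV AD169, 0.05-0.1 pfu/cell, ± 50% FBS; VZV 0.04-0.1 pfu/cell; HSV-1 F 0.0005-0.004 pfu/cell.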

[2] = biological target: T1, Human cytomegalovirus DNA polymerase (Human cytomegalovirus, UniProt P08546); assay: HCMV polymerase assay (AlphaLISA, IC50); format: biochemical; conditions: polymerase assay of Example 190
T1 construct: made in house; host or cells: SF21 insect cells (baculovirus vector)
Outline: (§2)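 Baculovirus-expressed polymerase (HCMV 0.2 nM, VZV 0.4 nM final) preincubated 30 min at room temperature with compound in pH 7.5 HEPES buffer; reaction started with 1.6 nM DIG-primer/template and nM dNTPs including biotin-dUTP, run 60 min at 37° C. Incorporation detected by AlphaLISA; IC50 from 4-parameter fit.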

[3] = test system: HCMV Strain AD169 in MRC-5 cells; assay: Viral qPCR assay HCMV (V0/V1, V2/V3), EC50; format: cell-based; conditions: Human betaherpesvirus 5, AD169, MRC5, viral qPCR assay of Example 191; read-out: HCMV Cell (EC50)
Outline: as §1

[4] = test system: VZV in MeWo or MRC5 cells; assay: Viral qPCR assay VZV (V0/V1, V2/V3), EC50; format: cell-based; conditions: 10%
Outline: as §1

[5] = biological target: T2, varicella zoster virus DNA polymerase (Varicella-zoster virus, UniProt P09252); assay: VZV polymerase assay (AlphaLISA, IC50); format: biochemical; conditions: polymerase assay of Example 190
T2 construct: made in house; host or cells: SF21 insect cells (baculovirus vector)
Outline: as §2

[6] = Human alphaherpesvirus 1, MRC5, MRC5 cells, read-out: HSV1 Cell (EC50) MRC5 10%
[7] = Human alphaherpesvirus 1, Vero, VERO cells, read-out: HSV1 Cell (EC50) VERO 10%
[8] = Human alphaherpesvirus 3, MeWo, MEWO cells, read-out: VZV Cell (EC50) MEWO 10%
[9] = Human alphaherpesvirus 3, MRC5, MRC5 cells, read-out: VZV Cell (EC50) MRC5 10%

T2 sequence (P09252 whole entry): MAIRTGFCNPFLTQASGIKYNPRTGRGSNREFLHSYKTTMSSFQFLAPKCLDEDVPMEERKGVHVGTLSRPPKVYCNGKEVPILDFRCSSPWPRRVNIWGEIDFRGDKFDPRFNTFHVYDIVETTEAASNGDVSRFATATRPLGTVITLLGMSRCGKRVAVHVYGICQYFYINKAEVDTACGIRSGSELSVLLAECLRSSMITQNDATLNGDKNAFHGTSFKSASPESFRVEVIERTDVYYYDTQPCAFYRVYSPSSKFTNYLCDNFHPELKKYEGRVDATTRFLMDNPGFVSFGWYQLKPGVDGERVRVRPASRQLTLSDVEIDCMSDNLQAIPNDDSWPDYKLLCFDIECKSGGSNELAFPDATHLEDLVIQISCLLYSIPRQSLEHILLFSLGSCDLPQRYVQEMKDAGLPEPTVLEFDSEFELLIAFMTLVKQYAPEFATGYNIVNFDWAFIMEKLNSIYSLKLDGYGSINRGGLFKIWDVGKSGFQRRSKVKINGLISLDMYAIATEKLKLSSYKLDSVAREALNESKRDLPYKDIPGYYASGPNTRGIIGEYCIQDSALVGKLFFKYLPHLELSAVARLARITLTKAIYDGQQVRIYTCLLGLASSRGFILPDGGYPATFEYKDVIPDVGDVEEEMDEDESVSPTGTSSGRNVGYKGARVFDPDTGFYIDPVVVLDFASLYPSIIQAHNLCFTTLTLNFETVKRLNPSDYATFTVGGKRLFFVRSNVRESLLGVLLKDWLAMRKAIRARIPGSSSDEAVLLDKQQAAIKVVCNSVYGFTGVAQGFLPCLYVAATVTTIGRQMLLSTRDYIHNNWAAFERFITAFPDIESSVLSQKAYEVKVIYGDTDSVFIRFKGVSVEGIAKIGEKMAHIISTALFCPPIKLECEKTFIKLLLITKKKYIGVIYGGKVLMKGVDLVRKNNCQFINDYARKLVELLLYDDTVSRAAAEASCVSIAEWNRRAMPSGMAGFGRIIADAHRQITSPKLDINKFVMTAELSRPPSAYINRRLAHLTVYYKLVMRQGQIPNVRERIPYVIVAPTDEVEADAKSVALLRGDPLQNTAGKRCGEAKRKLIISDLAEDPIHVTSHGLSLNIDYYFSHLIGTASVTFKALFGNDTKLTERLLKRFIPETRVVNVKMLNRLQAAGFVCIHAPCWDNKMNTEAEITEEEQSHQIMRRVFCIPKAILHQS
T1 sequence (P08546 whole entry): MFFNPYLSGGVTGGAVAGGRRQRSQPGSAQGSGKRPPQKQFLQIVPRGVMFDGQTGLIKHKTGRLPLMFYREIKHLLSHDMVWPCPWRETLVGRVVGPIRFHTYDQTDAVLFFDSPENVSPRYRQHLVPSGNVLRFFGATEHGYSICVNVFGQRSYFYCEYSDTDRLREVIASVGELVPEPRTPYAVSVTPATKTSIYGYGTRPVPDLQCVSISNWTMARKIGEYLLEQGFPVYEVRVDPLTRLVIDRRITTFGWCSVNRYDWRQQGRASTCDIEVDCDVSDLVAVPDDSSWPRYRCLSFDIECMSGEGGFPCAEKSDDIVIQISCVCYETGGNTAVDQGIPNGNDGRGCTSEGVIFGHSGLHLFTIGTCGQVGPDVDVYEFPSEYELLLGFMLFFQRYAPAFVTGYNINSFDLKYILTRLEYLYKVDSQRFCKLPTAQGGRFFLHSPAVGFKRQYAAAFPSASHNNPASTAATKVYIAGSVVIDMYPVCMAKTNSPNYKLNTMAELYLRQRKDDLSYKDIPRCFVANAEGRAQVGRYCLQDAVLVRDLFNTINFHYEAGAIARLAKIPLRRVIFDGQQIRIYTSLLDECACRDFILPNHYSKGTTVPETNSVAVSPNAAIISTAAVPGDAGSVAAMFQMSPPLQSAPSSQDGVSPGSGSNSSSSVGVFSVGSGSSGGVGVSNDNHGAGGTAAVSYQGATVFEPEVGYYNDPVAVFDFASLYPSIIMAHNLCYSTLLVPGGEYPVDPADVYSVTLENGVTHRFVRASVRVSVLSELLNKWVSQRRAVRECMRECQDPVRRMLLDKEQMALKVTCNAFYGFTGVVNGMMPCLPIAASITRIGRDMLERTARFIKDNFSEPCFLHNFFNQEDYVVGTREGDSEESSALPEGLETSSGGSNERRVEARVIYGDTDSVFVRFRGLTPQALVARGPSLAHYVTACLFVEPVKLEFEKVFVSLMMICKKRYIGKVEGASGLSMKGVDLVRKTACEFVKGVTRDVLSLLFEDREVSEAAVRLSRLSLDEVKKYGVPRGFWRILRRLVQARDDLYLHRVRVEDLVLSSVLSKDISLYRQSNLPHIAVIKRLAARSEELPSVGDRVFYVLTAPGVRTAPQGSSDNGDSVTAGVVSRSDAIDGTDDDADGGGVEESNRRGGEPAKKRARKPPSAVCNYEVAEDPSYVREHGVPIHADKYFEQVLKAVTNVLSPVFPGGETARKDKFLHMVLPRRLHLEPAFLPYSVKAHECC

| Compound | EC50 [1, 6] | EC50 [1, 7] | IC50 [2] | EC50 [3] | EC50 [4, 8] | IC50 [5] | EC50 [4, 9] |
| --- | --- | --- | --- | --- | --- | --- | --- |
| Cn1cnc(-c2cnc(C(=O)NCc3ccc(Cl)cc3)cc2O[C@H]2CCN3C(=O)OC[C@@H]3C2)c1 [Compound 38] | ≥ 80200 nM | 194 nM | 11.6 nM | 72.8 nM | 53.2 nM | 6.53 nM | – |
| Cc1nsc(-c2cnc(C(=O)NCc3ccc(Cl)cc3)cc2O[C@H]2CCN3C(=O)OC[C@@H]3C2)n1 [Compound 39] | 60.1 nM | – | 10.3 nM | 86.7 nM | – | 1.25 nM | 98 nM |
| O=C(NCc1ccc(Cl)cc1)c1cc(O[C@H]2CCN3C(=O)OC[C@@H]3C2)c(-c2nccs2)cn1 [Compound 40] | – | 30.8 nM | 10.4 nM | 55.7 nM | 16.7 nM | 9.39 nM | – |
| Cc1cnc(-c2cnc(C(=O)NCc3ccc(Cl)cc3)cc2O[C@H]2CCN3C(=O)OC[C@@H]3C2)s1 [Compound 41] | 39 nM | 12.2 nM | 5 nM | 89.9 nM | 70.8 nM | 3.88 nM | 97.4 nM |
| Cc1ncc(-c2cnc(C(=O)NCc3ccc(Cl)cc3)cc2O[C@H]2CCN3C(=O)OC[C@@H]3C2)s1 [Compound 42] | 51.7 nM | 40.8 nM | 5.3 nM | 58.9 nM | 48.5 nM | 3.76 nM | 79.9 nM |
| CC(=O)N1CCC(Oc2cc(C(=O)NCc3ccc(Cl)cc3)ncc2-c2cnc(C)s2)CC1 [Compound 43] | 106 nM | – | 24.9 nM | 179 nM | – | 14.6 nM | 140 nM |
| CC(=O)N1CCC(Oc2cc(C(=O)NCc3ccc(Cl)cc3)ncc2-c2cc(C)ns2)CC1 [Compound 44] | 154 nM | – | 26.2 nM | 182 nM | – | 1.98 nM | 120 nM |
| COc1cc(-c2cnc(C(=O)NCc3ccc(Cl)cc3)cc2OC2CCN(C(C)=O)CC2)sn1 [Compound 45] | 135 nM | – | 28.9 nM | 455 nM | – | 3.37 nM | 128 nM |
| CC(=O)N1CCC(Oc2cc(C(=O)NCc3ccc(Cl)cc3)ncc2-c2ccns2)CC1 [Compound 46] | 92.1 nM | – | 20.8 nM | 148 nM | – | 3.98 nM | 113 nM |
| CC(=O)N1CCC(Oc2cc(C(=O)NCc3ccc(Cl)cc3)ncc2-c2cn(C)c(C)n2)CC1 [Compound 48] | 190 nM | – | 31.9 nM | 373 nM | – | 29.4 nM | 294 nM |
| CC(=O)N1CCC(Oc2cc(C(=O)NCc3ccc(Cl)cc3)ncc2-c2nc(C)ns2)CC1 [Compound 49] | 510 nM | – | 36.3 nM | 155 nM | – | 17.6 nM | 794 nM |
| CC(=O)N1CCC(Oc2cc(C(=O)NCc3ccc(Cl)cc3)ncc2-c2nnc(C)s2)CC1 [Compound 54] | 241 nM | – | 61.6 nM | 768 nM | – | 14.9 nM | 181 nM |
| CC(=O)N1CCC(Oc2cc(C(=O)NCc3ccc(Cl)cc3)ncc2-c2nnc(C3CC3)s2)CC1 [Compound 57] | 110 nM | – | 86.9 nM | 133 nM | – | 12.7 nM | 203 nM |
| CC(=O)N1CCC(Oc2cc(C(=O)NCc3ccc(Cl)cc3)ncc2-c2ccn(C)n2)CC1 [Compound 61] | – | 108 nM | 238 nM | 484 nM | 81.6 nM | 181 nM | – |
| CC(=O)N1CCC(Oc2cc(C(=O)NCc3ccc(Cl)cc3)ncc2-c2cnn(CCO)c2)CC1 [Compound 62] | – | 4880 nM | 222 nM | 1580 nM | 162 nM | 67.5 nM | – |
| CC(=O)N1CCC(Oc2cc(C(=O)NCc3ccc(Cl)cc3)ncc2-c2ncc(C)s2)CC1 [Compound 63] | 310 nM | 34.2 nM | 13.5 nM | 246 nM | – | 11.1 nM | 215 nM |
| CC(=O)N1CCC(Oc2cc(C(=O)NCc3ccc(Cl)cc3)ncc2-c2cc[nH]n2)CC1 [Compound 64] | – | 1170 nM | 164 nM | 1020 nM | 440 nM | 65.3 nM | – |
| CC(=O)N1CCC(Oc2cc(C(=O)NCc3ccc(Cl)cc3)ncc2-c2cnco2)CC1 [Compound 65] | 288 nM | – | 35.5 nM | 769 nM | – | 11.8 nM | 721 nM |

| Compound | EC50 [1, 6] | EC50 [1, 7] | IC50 [2] | EC50 [3] | EC50 [4, 8] | IC50 [5] | EC50 [4, 9] |
| --- | --- | --- | --- | --- | --- | --- | --- |
| CC(=O)N1CCC(Oc2cc(C(=O)NCc3ccc(Cl)cc3)ncc2-c2cnc(C)o2)CC1 [Compound 66] | 242 nM | – | 47.4 nM | 250 nM | – | 18.6 nM | 288 nM |
| CC(=O)N1CCC(Oc2cc(C(=O)NCc3ccc(Cl)cc3)ncc2-c2cnc(C3CC3)o2)CC1 [Compound 67] | 660 nM | – | 50.7 nM | 612 nM | – | 21.7 nM | 706 nM |
| Cc1cnc(C(=O)NCc2ccc(Cl)cc2)cc1O[C@H]1CCN2C(=O)OC[C@@H]2C1 [Compound 68] | 689 nM | 270 nM | 51.4 nM | 603 nM | 126 nM | 38.7 nM | 1080 nM |
| CC(=O)N1CCC(Oc2cc(C(=O)NCc3ccc(Cl)cc3)ncc2-c2cn[nH]c2)CC1 [Compound 69] | – | 1110 nM | 109 nM | 678 nM | 351 nM | 32.5 nM | – |
| CC(=O)N1CCC(Oc2cc(C(=O)NCc3ccc(Cl)cc3)ncc2-c2cnn(C(F)F)c2)CC1 [Compound 70] | – | 430 nM | 117 nM | 1220 nM | 298 nM | 27.8 nM | – |
| CC(=O)N1CCC(Oc2cc(C(=O)NCc3ccc(Cl)cc3)ncc2/C=C\c2ccccn2)CC1 [Compound 77] | – | 122 nM | 103 nM | 825 nM | 230 nM | 37.2 nM | – |
| O=C(NCc1ccc(Cl)cc1)c1cc(O[C@H]2CCN3C(=O)OC[C@@H]3C2)c(CN2CCOCC2)cn1 [Compound 78] | – | 560 nM | 83.2 nM | 446 nM | 642 nM | 31.7 nM | – |
| O=C(NCc1ccc(Cl)c(F)c1)c1cc(O[C@H]2CCN3C(=O)OC[C@@H]3C2)c(-c2cnn(C(F)F)c2)cn1 [Compound 79] | 219 nM | 196 nM | 6.9 nM | 103 nM | – | 5.19 nM | 209 nM |
| C[C@H](NC(=O)c1cc(O[C@H]2CCN3C(=O)OC[C@@H]3C2)c(-c2cnn(C(F)F)c2)cn1)c1ccc(Cl)cc1 [Compound 81] | 153 nM | – | 14.3 nM | 312 nM | – | 11.9 nM | 307 nM |
| O=C(NCc1ccc([N+](=O)[O-])cc1)c1cc(O[C@H]2CCN3C(=O)OC[C@@H]3C2)c(-c2cnn(C(F)F)c2)cn1 [Compound 82] | 125 nM | – | 16 nM | 90.5 nM | – | 9.02 nM | 243 nM |
| N#Cc1ccc(CNC(=O)c2cc(O[C@H]3CCN4C(=O)OC[C@@H]4C3)c(-c3cnn(C(F)F)c3)cn2)c(F)c1 [Compound 84] | 463 nM | 520 nM | 25.9 nM | 350 nM | 66.8 nM | 26.7 nM | 345 nM |
| O=C(NCc1ccc(Cl)nc1)c1cc(O[C@H]2CCN3C(=O)OC[C@@H]3C2)c(-c2cnn(C(F)F)c2)cn1 [Compound 86] | – | 1450 nM | 189 nM | 754 nM | 825 nM | 20.6 nM | – |
| O=C(NCc1ccc(F)c(F)c1F)c1cc(O[C@H]2CCN3C(=O)OC[C@@H]3C2)c(-c2cnn(C(F)F)c2)cn1 [Compound 87] | – | 378 nM | 86.3 nM | 626 nM | 441 nM | 38.8 nM | – |
| O=C(NCc1ccc(Cl)cn1)c1cc(O[C@H]2CCN3C(=O)OC[C@@H]3C2)c(-c2cnn(C(F)F)c2)cn1 [Compound 90] | 2550 nM | 853 nM | 189 nM | 1040 nM | 737 nM | 105 nM | 5990 nM |
| N#Cc1ccc(CNC(=O)c2cc(O[C@H]3CCN4C(=O)OC[C@@H]4C3)c(-c3cnn(C(F)F)c3)cn2)cc1 [Compound 91] | – | 239 nM | 32.5 nM | 239 nM | 265 nM | 17.4 nM | – |
| Cn1cc(-c2cnc(C(=O)NCc3ccc(C#N)c(F)c3)cc2O[C@H]2CCN3C(=O)OC[C@@H]3C2)cn1 [Compound 93] | 124 nM | 241 nM | 1.42 nM | 66.7 nM | – | 1.99 nM | 118 nM |
| Cn1cc(-c2cnc(C(=O)NCc3ccc(F)c(F)c3F)cc2O[C@H]2CCN3C(=O)OC[C@@H]3C2)cn1 [Compound 94] | 412 nM | 368 nM | 31.7 nM | 111 nM | 155 nM | 21.4 nM | 427 nM |
